This note sets out measurements from US7919475B2, “Compositions and methods for improving heart function” (The Regents of The University of California, priority 2004, dated 2011).

The experiment relates to cellular protein O-GlcNAcylation in STZ-induced diabetic hearts. In words: Cellular protein O-GlcNAcylation in diabetic mouse hearts by Western blot. The note with it: STZ-induced diabetic mice, insulin 50 units/g per day subcutaneously for 2 weeks. It is filed as in vivo. The text has this: To rule out any potentially toxic effects of STZ on the heart, several STZ-injected mice were intensively treated with Ultralente human insulin (Eli Lilly and Company, IN) with 50 units/g per day subcutaneously. The insulin treatment commenced on the third day after STZ injection and lasted for 2 weeks. The cellular O-GlcNAcylation in these hearts was compared with that of the non-insulin treated diabetic hearts. In addition, several 20 weeks old male polygenic diabetic NONcNZO10/LtJ mice (The Jackson Laboratory) (see, e.g., Reifsnyder (2002) Diabetes 51:825-832; Leiter (2004) Diabetes 53 Suppl 1:S4-11) were used as a type II diabetic model to investigate the excess O-GlcNAcyaltion level in the diabetic heart independent of STZ administration. These mice developed hyperglycemia at 12-16 weeks. At the sacrifice time, blood glucose levels were above 33.3 mmol/L. Animal procedures were performed in accordance with the guidelines established by the Committee on Animal Research at the University of California, San Diego. […]
Twenty μg of protein was mixed with Laemmli sample buffer at room temperature for 10 min (samples for anti-O-GlcNAc antibody detection was heated at 70° C. for 10 min) and then loaded onto 4-10% gradient Tris/glycine gels. […] Films were scanned and analyzed by IMAGE-J™ software (NIH).
In general terms: Immunoblotting shows a protein as a band on a membrane.

In the case of “insulin: Ultralente human insulin (Eli Lilly and Company)”, the “excess O-GlcNAcylation of cellular protein in diabetic hearts” value is given as “prevented”.
